Results on four compounds are retold here after patent US9732065B2, “Cyclic aminomethyl pyrimidine derivative” (Sumitomo Dainippon Pharma Co., Ltd., priority 2013, dated 2017).

The nature of data set [1]: Brain penetration study in rat. Format: in vivo. The settings on record: brain and plasma, unbound brain-to-plasma drug concentration ratio. Here is the method:
In this study, the brain penetration of the present compound can be evaluated. Specifically, a 7-week-old SD-type or WKY-type rat received the subcutaneous administration of a solution of the present compound in saline or the oral administration of a suspension of the present compound in methylcellulose. Plasma and brain were collected from the treated rat 0.5 hour, 1 hour or 2 hours after the administration, and then the levels of the present compound in the plasma and the brain were measured by a LC-MS method.
The protein binding ratios of the present compound to the plasma and the brain were measured by an equilibrium dialysis method.
The levels of the present compound in the plasma and the brain as well as the plasma and brain protein binding ratios are applied to the following formula, and thus Kp,uu,brain (Unbound brain-to-plasma drug concentration ratio) can be calculated. Kp,uu,brain=(level of the present compound in the brain×(100−brain protein binding ratio (%))/100)/(level of the present compound in the plasma×(100−plasma protein binding ratio (%))/100)

The target in data set [2] is T1, Human dopamine D4 receptor (Homo sapiens, UniProt P21917).
T1 sequence (P21917 1-419): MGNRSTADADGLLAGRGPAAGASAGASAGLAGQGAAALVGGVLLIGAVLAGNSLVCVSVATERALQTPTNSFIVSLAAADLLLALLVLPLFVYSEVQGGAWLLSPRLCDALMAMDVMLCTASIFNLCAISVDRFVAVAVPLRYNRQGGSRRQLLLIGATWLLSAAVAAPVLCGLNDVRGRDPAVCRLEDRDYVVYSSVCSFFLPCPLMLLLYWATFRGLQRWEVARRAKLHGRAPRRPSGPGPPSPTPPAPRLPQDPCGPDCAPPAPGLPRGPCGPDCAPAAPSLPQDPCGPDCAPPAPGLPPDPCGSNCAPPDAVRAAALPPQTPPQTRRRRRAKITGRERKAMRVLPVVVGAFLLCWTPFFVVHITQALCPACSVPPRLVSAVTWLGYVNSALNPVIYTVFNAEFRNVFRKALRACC
Briefly: Agonistic/antagonistic activity in G protein dependent pathway (aequorin intracellular calcium luminescence), D4. Type of data set: cell-based. As to conditions: for inhibition at 0.1 µM / inhibition at 1 µM: against 10 μM endogenous ligand, read-out: Inhibitory activity on each receptor (%): D4; for Emax at 0.1 µM / Emax at 1 µM: read-out: Maximal activity on each receptor (%): D4. Also on record: expressed in transfected cells; host or cells: CHO-K1 or HEK293 cells. On the procedure: (§1) Plasmids encoding each receptor, aequorin and Gα16 were prepared, and the plasmids were transfected into CHO cells (Chinese Hamster Ovary cells) or HEK293 cells (Human Embryonic Kidney 293 cells) to prepare expressing cell lines.
(§2) The agonistic or antagonistic activity of the present compound in the G protein dependent pathway was evaluated on the basis of intracellular calcium levels as follows. CHO-K1 or HEK293 cell lines transfected with D2, D4, α1A, or α2A receptor genes were seeded in a 384-well plate, and incubated in a CO2 incubator at 37° C. for 24 hours, and then a solution of the present compound in DMSO was added into cells preloaded with coelenterazine to measure the change in luminescent signals with a FDSS (Hamamatsu Photonics K.K.). […] The agonistic activity of the present compound was calculated according to the measured luminescent signals, as the maximal activity (Emax) of the present compound. On the other hand, the antagonistic activity of the present compound was calculated according to the luminescent signals in wells with 10 μM of an endogenous ligand alone defined as 100%, as the inhibitory activity of the present compound to an endogenous ligand. EC50 value was calculated as the concentration of the present compound required to achieve a 50% response, and IC50 was calculated as the concentration of the present compound required to achieve a 50% inhibition of the Emax of an endogenous ligand.
In general terms: Calcium flux is commonly read through the fluorescence of an indicator in the cells.

Data set [3] concerns the target T1, Human dopamine D4 receptor. Briefly: G protein independent pathway: β-arrestin recruit ability (PathHunter β-galactosidase). Type of data set: cell-based. Also on record: expressed in transfected cells. As to conditions: β-arrestin recruitment, 90 minutes; 10 μM dopamine = 100%. On the procedure:
The activation of the G protein independent pathway was evaluated on the basis of the recruit ability of β-arrestin as follows. Cell lines transfected with D4 receptor genes were seeded in a 384-well plate, and incubated in a CO2 incubator at 37° C. for 24 hours, a solution of the present compound in DMSO was added into the cells, and then the cells were left at 37° C. for 90 minutes. Buffer containing β-galactosidase reaction substance (PathHunter Cell Assay Buffer, DiscoverRx) was added thereto, and luminescent signals in the wells were measured with a FDSS (Hamamatsu Photonics K.K.). […] The maximal activity (Emax) of the present compound was calculated according to the measured luminescent signals. EC50 value was calculated as the concentration of the present compound required to achieve a 50 response.
A general note: Activated receptors often draw arrestin, which recruitment assays turn into a signal.

Data set [4] can be described thus: PK study in rat (bioavailability). Format: in vivo. As to conditions: plasma, oral vs intravenous administration. On the procedure:
In this study, the pharmacokinetics of the present compound can be evaluated. Specifically, a 7-week-old SD-type or WKY-type rat received the intravenous administration of a solution of the present compound in saline or the oral administration of a suspension of the present compound in carboxymethylcellulose or methylcellulose. Blood was collected from the rat at each time below.
Intravenous administration: 5 minutes, 15 minutes, 30 minutes, 1 hour, 2 hours, 4 hours, 6 hours, and 24 hours after administration
Oral administration: 15 minutes, 30 minutes, 1 hour, 2 hours, 4 hours, 6 hours, and 24 hours after administration
Plasma was collected from the blood, the levels of the present compound in the plasma were measured by a LC-MS method, and then the pharmacokinetic parameters were calculated on the basis of the level changes.

In data set [5] the target is T2, human adrenergic α1A receptor (Homo sapiens, UniProt P35348).
T2 construct: expressed in transfected cells; host or cells: CHO-K1 or HEK293 cells
T2 sequence (P35348 1-466): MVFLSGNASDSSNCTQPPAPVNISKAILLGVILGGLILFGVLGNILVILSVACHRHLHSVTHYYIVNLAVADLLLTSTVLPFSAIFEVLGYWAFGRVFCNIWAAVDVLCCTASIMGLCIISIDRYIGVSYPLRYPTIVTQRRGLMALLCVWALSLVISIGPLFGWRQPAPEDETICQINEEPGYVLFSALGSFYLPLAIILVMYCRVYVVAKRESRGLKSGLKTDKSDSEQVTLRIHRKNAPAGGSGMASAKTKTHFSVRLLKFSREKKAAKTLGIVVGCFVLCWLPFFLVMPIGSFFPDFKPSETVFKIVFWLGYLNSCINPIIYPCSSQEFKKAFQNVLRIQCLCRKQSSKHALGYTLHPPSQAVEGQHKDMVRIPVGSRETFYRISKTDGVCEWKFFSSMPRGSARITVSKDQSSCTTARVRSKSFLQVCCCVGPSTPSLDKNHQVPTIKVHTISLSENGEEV
Briefly: Agonistic/antagonistic activity in G protein dependent pathway (aequorin intracellular calcium luminescence), α1A. Format: cell-based. As to conditions: for Maximal activity on each receptor (%): α1A: 10 μM adrenaline = 100%; for inhibition at 0.1 µM / inhibition at 1 µM: against 10 μM endogenous ligand, read-out: Inhibitory activity on each receptor (%): α1A. Here is the method: as §1, §2

Each structure is given as a SMILES string.

Broadly, the bioavailability is dose-corrected exposure relative to a reference, in per cent. Low readings indicate poor availability, high ones good availability. Take `Cc1ncc(CN2CCC(c3ccccn3)CC2)c(C)n1` [Example 44, 2,4-Dimethyl-5-[4-(pyridin-2-yl)piperidin-1-ylmethyl]pyrimidine]: the Kp uu in data set [1] amounted to 0.8. In addition, in data set [2], the inhibition at 0.1 µM turned out to be 58%, the inhibition at 1 µM was determined as 78%, the Emax at 0.1 µM worked out at 27% and the Emax at 1 µM came to 64%. Also, the “Maximal activity on D4 receptor (%)” value in data set [3] worked out at 6%. The same compound yielded a bioavailability in data set [4] of 27.6%. Also, in data set [5] (0.1 μM), the “Maximal activity on each receptor (%): α1A” value (from here on “Maximal activity … (%): α1A”) was determined as 0.04% and the inhibition at 0.1 µM was 2.7%. Moreover, in data set [5] (1 μM), the “Maximal activity … (%): α1A” value amounted to 0.01% and the inhibition at 1 µM stood at 2.6%.
In the case of `Nc1ncc(CN2CCC(c3ccccn3)CC2)cn1` [Example 36], the Kp uu in data set [1] was 2.28. Further, in data set [2], the Emax at 1 µM turned out to be 82%. Moreover, in data set [4], the bioavailability is 67.2%.
In the case of `Nc1ncc(CN2CCC(c3cncc(F)c3)CC2)cn1` [Example 46, 5-[4-(5-Fluoropyridin-3-yl)piperidin-1-ylmethyl]pyrimidin-2-amine], the Kp uu in data set [1] worked out at 1.8. Also, in data set [2], the inhibition at 0.1 µM was determined as 61%, the inhibition at 1 µM was 85%, the Emax at 0.1 µM stood at 14% and the Emax at 1 µM was 40%. In addition, the “Maximal activity on D4 receptor (%)” value in data set [3] is recorded as 11%. The same compound showed a bioavailability in data set [4] of 92.2%. Besides, in data set [5] (0.1 μM), the “Maximal activity … (%): α1A” value amounted to 0.08% and the inhibition at 0.1 µM is -6.4%. Also, in data set [5] (1 μM), the “Maximal activity … (%): α1A” value is 0.23% and the inhibition at 1 µM was -17%.
As to `Cc1ncc(CN2CCC(c3cccnc3)CC2)c(C)n1` [Example 45, 2,4-Dimethyl-5-[4-(pyridin-3-yl)piperidin-1-ylmethyl]pyrimidine], the Kp uu in data set [1] came to 0.8. In data set [2], the inhibition at 0.1 µM was determined as 72%, the inhibition at 1 µM was found to be 87%, the Emax at 0.1 µM amounted to 20% and the Emax at 1 µM worked out at 35%. Besides, the “Maximal activity on D4 receptor (%)” value in data set [3] came out at 9%. Further, the bioavailability in data set [4] came out at 21.6%. In data set [5] (0.1 μM), the “Maximal activity … (%): α1A” value is recorded as 0.03% and the inhibition at 0.1 µM is -5.6%. Further, in data set [5] (1 μM), the “Maximal activity … (%): α1A” value came to 0.08% and the inhibition at 1 µM was -0.73%.
